System: monkey ES cell line transfected with an αMHC promoter-driven GFP gene
Assay: Chemical screening: GFP fluorometry for cardiac differentiation of monkey ES cells
Assay type: cell-based, cynomolgus monkey
Settings: for intensity of GFP fluorescence relative to control culture (KY02111 only, assigned to one): GFP fluorometry day 9
Protocol: Pluripotent stem cells were cultured in culture media to which the test compounds were added in different concentrations (0.3 μM, 1 μM, 3 μM and 10 μM) in early phase and late phase of differentiation of the cells. Cells from the culture were subjected to GFP fluorometry in accordance with the cardiac differentiation protocol shown in FIG. 1a. Besides the test compounds, 10 μM KY02111 was included in the culture media for the late phase differentiation. The intensity of GFP fluorescence determined in the cells from the control culture, which was cultured with no test compound other than KY02111, was assigned to one.
The scheme of chemical screening is illustrated in FIG. 1a. Compounds were screened for the ability of increasing GFP fluorescence compared with the control (KY02111 alone) using a monkey ES cell line transfected with an αMHC promoter-driven GFP gene (Minami et al., Cell Reports 2, 1448-1460, 2012, which is incorporated herein by reference). The ES cell line was derived from a monkey ES cell line (cynomolgus monkey CMK6.4) by transfecting the cells with a vector which expresses green fluorescent protein (GFP) under control by a promoter of α-MHC gene (a marker of cardiac differentiation). The cells were plated at 4.0×10^5 cells per well in 6 well plates (Asahi Glass/5816-006: Ezview culture plates) and cultured for nine days in an IMDM-based medium for cardiac differentiation (200 ml IMDM medium (Sigma 13390), with 50 ml calf serum (GIBCO 10099-141), 2.5 ml MEM non-essential amino acid solution (Sigma M7145), 2.5 ml penicillin-streptomycin ([…]), 2.5 ml 200 mM L-glutamine, 2 ul 2-mercaptoethanol (Sigma M7522), and 255 ul 5N NaOH). Each test compound was added to the medium at different concentrations in the early phase (day 0 to day 3) and the late phase (day 4 to day 7) of cardiac differentiation. Cells obtained from the culture on day 9 were subjected to GFP fluorometry with a Metamorph imaging system. […]

[1] = test compound 0.3 μM in Early phase (day 0 to day 3), 10 μM KY02111 in late phase
[2] = test compound 0.3 μM in Late phase (day 4 to day 7) with 10 μM KY02111
[3] = test compound 1 μM in Early phase (day 0 to day 3), 10 μM KY02111 in late phase
[4] = test compound 1 μM in Late phase (day 4 to day 7) with 10 μM KY02111
[5] = test compound 3 μM in Early phase (day 0 to day 3), 10 μM KY02111 in late phase
[6] = test compound 3 μM in Late phase (day 4 to day 7) with 10 μM KY02111
[7] = test compound 10 μM in Early phase (day 0 to day 3), 10 μM KY02111 in late phase
[8] = test compound 10 μM in Late phase (day 4 to day 7) with 10 μM KY02111

SMILES | intensity of GFP fluorescence relative to control culture (KY02111 only, assigned to one) [1] | intensity of GFP fluorescence relative to control culture (KY02111 only, assigned to one) [2] | intensity of GFP fluorescence relative to control culture (KY02111 only, assigned to one) [3] | intensity of GFP fluorescence relative to control culture (KY02111 only, assigned to one) [4] | intensity of GFP fluorescence relative to control culture (KY02111 only, assigned to one) [5] | intensity of GFP fluorescence relative to control culture (KY02111 only, assigned to one) [6] | intensity of GFP fluorescence relative to control culture (KY02111 only, assigned to one) [7] | intensity of GFP fluorescence relative to control culture (KY02111 only, assigned to one) [8] | increase of cardiac differentiation (1 to 3 μM in late phase, alone or in combination with KY02111 (10 μM in late phase), FIG. 1e)
COc1cc([C@@H]2c3cc4c(cc3[C@H](O)[C@H]3COC(=O)[C@@H]23)OCO4)cc(OC)c1OC [PPP] | 0.2 | 0.39 | 0 | 0.2 | 0 | 0 | 0 | 0 | 
O=C1NC(=O)/C(=C\c2ccc3nccnc3c2)S1 [AS605240] | 0.65 | 1.31 | 0.84 | 0.9 | 0.32 | 1.22 | 0 | 0.55 | 
CC(C)(C)c1ccc(S(=O)(=O)Nc2ccc(-n3ccnc3)cc2)cc1 [ISCK03] | 0.08 | 1.23 | 0 | 0.8 | 0 | 0.79 | 0 | 0.88 | 
NC(=O)c1ccc(-c2nc(-c3ccccn3)c(-c3ccc4c(c3)OCO4)[nH]2)cc1 [5B431542] | 0.61 | 1.2 | 0.1 | 1.52 | 0 | 1.44 | 0 | 1.58 | 
c1cc(-c2cnn3cc(-c4ccc(OCCN5CCCCC5)cc4)cnc23)ccn1 [Dorsomorphin] | 0.13 | 0.96 | 0.03 | 1.67 | 0 | 1.22 | 0 | 0.89 | 
N#C/C(=C/c1ccc(O)c(O)c1)C(=O)NCc1ccccc1 [AG490] | 1.5 | 0.92 | 0.59 | 1 | 0.79 | 1.1 | 0.72 | 1.33 | 
COc1ccc(-c2ccc3c(N4CCOCC4)nc(N4C[C@@H](C)O[C@@H](C)C4)nc3n2)cc1CO [K00063794] | 0.18 | 0.95 | 0.01 | 0.85 | 0 | 0.21 | 0 | 0 | 
COc1ccc2c(c1)c(C1=C(c3c[nH]c4ccccc34)C(=O)NC1=O)cn2CCCN(C)C [Go6983] | 1.1 | 1.12 | 0.98 | 0.62 | 2.31 | 0.45 | 2.12 | 0.13 | 
O=c1[nH]c2ccccc2n1C1CCN(Cc2ccc(-c3nc4cc5[nH]cnc5cc4nc3-c3ccccc3)cc2)CC1 [Akt inhibitor 8] | 1.2 | 1.11 | 0.96 | 1.57 | 0.11 | 1.33 | 0 | 1.11 | 
Cc1cc(Nc2ncc3c(n2)N(C)C(=O)N(c2cc(NC(=O)c4cccc(C(F)(F)F)c4)ccc2C)C3)n(C)n1 [SC-1] | 0.16 | 0.14 | 0 | 0 | 0 | 0 | 0 | 0 | 
CN(C)S(=O)(=O)c1ccc2c(c1)/C(=C/c1cc3c([nH]1)CCCC3)C(=O)N2 [SU6656] |  |  |  |  |  |  |  |  | two- to five-fold
Cc1c[nH]c(/C=C2\C(=O)Nc3ccccc32)c1CCC(=O)O [SU5402] | 0.09 | 0.89 | 0 | 1 | 0 | 0.46 | 0 | 0.06 | 
CC(C)(O)/C=C/C(=O)[C@](C)(O)[C@H]1[C@H](O)C[C@@]2(C)[C@@H]3CC=C4[C@@H](C=C(O)C(=O)C4(C)C)[C@]3(C)C(=O)C[C@]12C [Cucurbitaonl] | 0.11 | 1.62 | 0 | 0 | 0 | 0 | 0 | 0 | 
CCN(CC)CCCCNc1ncc2cc(-c3cc(OC)cc(OC)c3)c(NC(=O)NC(C)(C)C)nc2n1 [PD173074] | 0.02 | 0.23 | 0 | 0.08 | 0 | 0 | 0 | 0 | 

Source: patent publication US10233426B2, “Method for inducing cardiac differentiation of pluripotent stem cell with low-molecular compounds” (KYOTO UNIVERSITY, priority 2014, dated 2019)
